Results taken from patent publication US20120270935A1, “FORMULATIONS” (priority 2009, published 2012).

Assays:
C. striatum NCTC 764 [1] = assay: MIC assay; assay type: cell-based, Corynebacterium striatum; settings: triplicate
Excerpt: (§1) (a) staphylococci. The Staphylococcus aureus strain used was ATCC 29213. S. aureus and other staphylococci are common causes of a wide range of skin, skin structure and wound infections; S. aureus is also known to exacerbate eczema. The ATCC 29213 strain is known to be susceptible to beta-lactam antibiotics such as methicillin. The Staphylococcus epidermidis strain used was NCTC 11047. Staph. epidermidis forms part of the resident flora of skin and is an opportunistic pathogen which can cause biofilms to grow for instance on plastic surgical implants such as catheters. Unless otherwise stated, the staphylococci were cultured and maintained on Mueller-Hinton Medium (agar and broth) at pH 7.2; cultures were incubated aerobically at 37° C. for 19-20 hours, at pH 7 (±0.2). (b) C. striatum NCTC 764. Corynebacterium striatum is closely related to organisms (aerobic diphtheroids of the genus Corynebacterium) that cause body odour. It was cultured and maintained on Mueller-Hinton medium (agar and broth). All cultures were incubated aerobically at 37° C. for 72 hours, at pH 7 (±0.2). (c) streptococci. The strains tested were S. mutans ATCC 25175 and S. pyogenes ATCC 12344. S. mutans is a Gram-positive, microaerophilic bacterium which plays a significant role in dental caries and in infective endocarditis. Streptococcus pyogenes is associated with skin, soft tissue, burn and wound infections. S. mutans was cultured and maintained on Wilkins-Chalgren Anaerobe medium+1 g/L glucose (agar and broth); it was incubated in air at 37° C. for 48 hours, at pH 7 (±0.2) with 5% carbon dioxide. […]
(§2) This is a standard international method for quantitatively assessing the antimicrobial activity of a compound in a liquid medium. […]
(§3) The wells were inoculated with a liquid suspension of freshly grown micro-organism and incubated under the conditions described above. […] The MIC value was recorded as the lowest concentration of test compound required to inhibit microbial growth, ie the lowest concentration for which the liquid in the well remained clear. […]

S. aureus ATCC 29213 [2] = assay: Disc diffusion assay (DDA); assay type: cell-based, Staphylococcus aureus; settings: 200 μg per disc; Mueller-Hinton agar pH 7.0; overnight at 37° C. in air
Excerpt: as §1, with “infections.” for “infections. S. mutans was cultured and maintained on Wilkins-Chalgren Anaerobe medium+1 g/L glucose (agar and broth); it was incubated in air at 37° C. for 48 hours, at pH 7 (±0.2) with 5% carbon dioxide.”
(§4) A sterile paper disc was impregnated with a sample of the test compound in a suitable solvent and 30 minutes allowed for the solvents to evaporate (where possible). […] The diameter of this zone of “inhibition” was measured using a ProtoCOL™ automated zone sizer (Synbiosis, Cambridge, UK). […]
(§5) Example 8 was repeated (except for the supplemented DDA assays), using S. aureus ATCC 29213 as the test organism. […] In the DDA assays, 200 μg is of each compound was loaded onto each disc: the culture medium was Mueller-Hinton agar at pH 7.0, and results were recorded after overnight incubation at 37° C. in air. […]

C. striatum NCTC 764 [3] = assay: MBC assay; assay type: cell-based, Corynebacterium striatum; settings: triplicate
Excerpt: (§6) (a) staphylococci. The Staphylococcus aureus strain used was ATCC 29213. S. aureus and other staphylococci are common causes of a wide range of skin, skin structure and wound infections; S. aureus is also known to exacerbate eczema. The ATCC 29213 strain is known to be susceptible to beta-lactam antibiotics such as methicillin. The Staphylococcus epidermidis strain used was NCTC 11047. Staph. epidermidis forms part of the resident flora of skin and is an opportunistic pathogen which can cause biofilms to grow for instance on plastic surgical implants such as catheters. Unless otherwise stated, the staphylococci were cultured and maintained on Mueller-Hinton Medium (agar and broth) at pH 7.2; cultures were incubated aerobically at 37° C. for 19-20 hours, at pH 7 (±0.2). (b) C. striatum NCTC 764. Corynebacterium striatum is closely related to organisms (aerobic diphtheroids of the genus Corynebacterium) that cause body odour. It was cultured and maintained on Mueller-Hinton medium (agar and broth). All cultures were incubated aerobically at 37° C. for 72 hours, at pH 7 (±0.2). (c) streptococci. The strains tested were S. mutans ATCC 25175 and S. pyogenes ATCC 12344. S. mutans is a Gram-positive, microaerophilic bacterium which plays a significant role in dental caries and in infective endocarditis. Streptococcus pyogenes is associated with skin, soft tissue, burn and wound infections. S. mutans was cultured and maintained on Wilkins-Chalgren Anaerobe medium+1 g/L glucose (agar and broth); it was incubated in air at 37° C. for 48 hours, at pH 7 (±0.2) with 5% carbon dioxide. S. pyogenes was cultured and maintained on Mueller-Hinton medium (broth and agar) and was incubated under the same conditions as S. mutans.
(§7) This assay, normally carried out after an MIC assay, determines the minimum concentration of a compound that is lethal to the micro-organism being tested.
These samples were then individually sub-cultured on antibiotic-free agar medium, under the incubation conditions described above. Following incubation they were examined visually for microbial growth. […]

S. aureus ATCC 29213 [4] = assay: MBC assay; assay type: cell-based, Staphylococcus aureus; settings: Mueller-Hinton broth pH 7.0
Excerpt: as §6, with “mutans. […]” for “mutans.”
as §5

S. aureus ATCC 29213 [5] = assay: MIC assay; assay type: cell-based, Staphylococcus aureus; settings: Mueller-Hinton broth pH 7.0
Excerpt: as §1, with “endocarditis.” for “endocarditis. Streptococcus pyogenes is associated with skin, soft tissue, burn and wound infections. S. mutans was cultured and maintained on Wilkins-Chalgren Anaerobe medium+1 g/L glucose (agar and broth); it was incubated in air at 37° C. for 48 hours, at pH 7 (±0.2) with 5% carbon dioxide.”
as §2, §3, §5

P. acnes NCTC 737 [6] = assay: Minimum bactericidal concentration (MBC) assay; assay type: cell-based, Propionibacterium acnes; settings: compound in DMSO; triplicate
Method: (§8) The first test micro-organism used was Propionibacterium acnes NCTC 737. This is a propionibacterial strain and is the type strain of the […]; it is fully susceptible to antibiotics.
(§9) The propionibacteria were cultured and maintained on Wilkins-Chalgren Anaerobe Medium (agar and broth) at pH 6.0; all cultures were incubated anaerobically at 37° C. for 72 hours.
as §7
These samples were then individually sub-cultured on antibiotic-free agar medium, under the incubation conditions described above. Following incubation they were examined visually for microbial growth.
(§10) DDA assays, as described above, were carried out using as the test formulation the gel prepared in Example 2B above. Also tested was the Example 2B gel minus the Klucel™ thickener, which was also subjected to MIC and MBC assays. For the DDAs, which were performed in triplicate, 100 μl of the relevant formulation was loaded onto each disc, and zones of inhibition were recorded after 3 days' anaerobic incubation at 37° C. The MIC and MBC tests were performed in duplicate and the results recorded after 3 days and 7 days respectively, post-subculture onto drug-free medium.
The compounds copper (II) usnate (Just for Today Ltd), sodium usnate (Yick-Vic Chemicals) and usnic acid (Sigma-Aldrich) were tested against P. acnes NCTC 737, using MIC, MBC and DDA assays as described above. For copper usnate and usnic acid, supplemented DDA assays were also carried out. DMSO was used as the solvent for all three test compounds. For the DDAs, 200 μg of the relevant test compound was loaded onto each disc. The MIC and MBC assays were conducted in triplicate, as were the DDAs for copper usnate.

P. acnes NCTC 737 [7] = assay: Minimum inhibitory concentration (MIC) assay, broth microtitre; assay type: cell-based, Propionibacterium acnes; settings: compound in DMSO; triplicate
Method: as §8, §9
This is a standard international method for quantitatively assessing the antimicrobial activity of a compound in a liquid medium. The method used a sterile 96-well microtitre plate, capable of holding about 200 μl of liquid per well. The wells contained liquid culture medium and ranges of decreasing concentrations of the relevant test compound in doubling dilutions (eg 1000, 500, 250, 125 . . . μg/ml, etc. down to 0.49 μg/ml). The culture medium was as described above.
The wells were inoculated with a liquid suspension of freshly grown micro-organism and incubated under the conditions described above. After incubation, the microtitre plate was examined visually (with the aid of a light box) for cloudiness in each well, which would indicate microbial growth. The MIC value was recorded as the lowest concentration of test compound required to inhibit microbial growth, ie the lowest concentration for which the liquid in the well remained clear.
The assays included both negative (culture medium with no micro-organisms) and positive (culture medium plus diluting solvent plus micro-organism) controls.
as §10, with “medium. […]” for “medium.”

P. acnes NCTC 737 [8] = assay: Disc diffusion assay (DDA); assay type: cell-based, Propionibacterium acnes; settings: 200 μg compound per disc; DMSO
Method: as §8, §9
This is an internationally recognised standard method for qualitatively assessing the antimicrobial activity of a compound.
A sterile paper disc was impregnated with a sample of the test compound in a suitable solvent and 30 minutes allowed for the solvents to evaporate (where possible). The disc was then placed on an agar plate onto which the test micro-organism had been inoculated. The plate was then incubated under the conditions described above, following which it was examined visually for signs of microbial growth. If the test compound had antimicrobial activity, a circular zone of no growth would be obtained around the disc. The diameter of this zone of “inhibition” was measured using a ProtoCOL™ automated zone sizer (Synbiosis, Cambridge, UK). In general, a greater diameter and/or area of the zone of inhibition indicates a greater antimicrobial activity in the relevant test compound, although other factors such as test compound mobility through the agar gel may also influence the result.
as §10, with “medium. […]” for “medium.”

C. striatum NCTC 764 [9] = assay: Disc diffusion assay (DDA); assay type: cell-based, Corynebacterium striatum; settings: 200 μg per disc; single plates
Excerpt: as §1, with “streptococci.” for “streptococci. The strains tested were S. mutans ATCC 25175 and S. pyogenes ATCC 12344. S. mutans is a Gram-positive, microaerophilic bacterium which plays a significant role in dental caries and in infective endocarditis. Streptococcus pyogenes is associated with skin, soft tissue, burn and wound infections. S. mutans was cultured and maintained on Wilkins-Chalgren Anaerobe medium+1 g/L glucose (agar and broth); it was incubated in air at 37° C. for 48 hours, at pH 7 (±0.2) with 5% carbon dioxide.”
as §4

## CC(=O)C1=C([O-])C=C2Oc3c(C(C)=O)c(O)c(C)c(O)c3[C@]2(C)C1=O.[Na+] [Sodium usnate, sodium usnate]
C. striatum NCTC 764 [1]
  MIC: 3.9 µg/mL
S. aureus ATCC 29213 [2]
  DDA zone diameter: 15.0 mm
C. striatum NCTC 764 [3]
  MBC: 125 µg/mL
S. aureus ATCC 29213 [4]
  MBC: 250 µg/mL
S. aureus ATCC 29213 [5]
  MIC: 7.8 µg/mL
P. acnes NCTC 737 [6]
  MBC: 0.98 µg/mL
P. acnes NCTC 737 [7]
  MIC: 0.49 µg/mL
P. acnes NCTC 737 [8]
  DDA zone diameter, unsupplemented medium: 57.9 mm
C. striatum NCTC 764 [9]
  DDA zone diameter: 20.0 mm
